Test results from paper PMC8580996, “2-Oxoglutarate derivatives can selectively enhance or inhibit the activity of human oxygenases” (Nature Communications, 2021).
Values joined by “and” are separate entries in the source; they are usually repeats but may differ in a detail not shown here. Identical values can stand only once.

How the values were obtained:
[1] = target: T1, AspH (Homo sapiens, UniProt Q12797); settings: 0.05 μM AspH, 1.0 μM hFX-CP101-119, 3.0 μM 2OG, ref 21 (supplementary ref 1); cited from earlier work
T1 construct: the tetratricopeptide repeat domain (His6-AspH315-758), was produced and purified as previously reported; made in house
T1 sequence (Q12797 315-758): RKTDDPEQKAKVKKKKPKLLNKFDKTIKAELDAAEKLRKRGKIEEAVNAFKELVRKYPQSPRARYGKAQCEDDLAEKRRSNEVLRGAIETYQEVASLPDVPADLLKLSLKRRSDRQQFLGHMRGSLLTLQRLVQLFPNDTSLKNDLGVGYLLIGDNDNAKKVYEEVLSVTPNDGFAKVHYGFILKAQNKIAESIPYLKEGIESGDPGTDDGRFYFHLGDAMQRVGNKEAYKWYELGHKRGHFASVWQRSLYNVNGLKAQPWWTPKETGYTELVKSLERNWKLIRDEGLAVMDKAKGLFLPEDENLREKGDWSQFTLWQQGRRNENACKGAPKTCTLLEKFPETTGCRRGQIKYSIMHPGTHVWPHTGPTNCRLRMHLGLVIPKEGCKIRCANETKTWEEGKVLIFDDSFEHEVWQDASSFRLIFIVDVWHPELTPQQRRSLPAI

[2] = target: T1, AspH; set-up: method as in PMID 34163896; settings: hFX-CP101–119 substrate, 330 μM 2OG or 2OG derivative, t = 15 min; cited from earlier work
[3] = target: T1, AspH; assay: Competition assay in a single reaction vessel, AspH-catalyzed hydroxylation (SPE-MS); format: biochemical; settings: after 4 min
Description: (§1) Mean of three independent runs (n = 3; mean ± SD). […] Cosubstrates: a 20 μM 2OG; b 20 μM 2OG; c 20 μM 1; d 20 μM 12; e 20 μM 12 and 100 μM 2OG; f 100 μM 14. Source data are provided as a Source Data file.
(§2) Mean of three independent runs (n = 3; mean ± SD). […] Source data are provided as a Source Data file.
(§3) Peptide turnover was monitored by SPE-MS using the same instrument configuration (with the exception that the peptides were eluted from the SPE cartridge with 0.1%v/v aqueous formic acid in 80/20 v/v acetonitrile/water) as described above.
(§4) FIH and AspH-catalyzed peptide hydroxylations were analyzed simultaneously using SPE-MS as described in the
(§5) Methods section; competition experiments were performed in the same reaction vessel using equimolar 2OG
(§6) oxygenase and substrate concentrations. […]
(§7) Source data are provided as a Source Data file.
(§8) FIH and AspH-catalyzed peptide hydroxylations were analyzed simultaneously using SPE-
(§9) MS as described in the Methods section; competition experiments were performed in the same reaction vessel
(§10) using equimolar 2OG oxygenase and substrate concentrations. […]
(§11) 2OG, 100 μM 14. Source data are provided as a Source Data file.

[4] = target: T2, FIH (Homo sapiens, UniProt Q9NWT6); assay: Competition assay in a single reaction vessel, FIH-catalyzed hydroxylation (SPE-MS); format: biochemical
T2 sequence (Q9NWT6 whole entry): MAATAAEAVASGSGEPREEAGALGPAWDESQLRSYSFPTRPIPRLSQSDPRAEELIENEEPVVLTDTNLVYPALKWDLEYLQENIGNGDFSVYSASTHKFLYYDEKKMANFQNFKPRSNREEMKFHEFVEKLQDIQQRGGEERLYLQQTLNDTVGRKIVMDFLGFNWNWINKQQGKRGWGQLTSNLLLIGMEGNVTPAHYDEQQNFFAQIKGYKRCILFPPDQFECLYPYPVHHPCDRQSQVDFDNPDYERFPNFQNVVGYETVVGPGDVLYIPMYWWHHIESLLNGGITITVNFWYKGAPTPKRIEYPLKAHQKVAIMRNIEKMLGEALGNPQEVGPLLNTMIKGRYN
Description: as §1, §2, §3, §4, §5, §6, §7, §8, §9, §10, §11

[5] = target: T2, FIH; assay: SPE-MS FIH turnover (cosubstrate) assay in the absence of 2OG; format: biochemical; settings: 330 μM 2OG or 2OG derivative, no 2OG, t = 15 min
Description: The ability of 35 synthetic C3/C4-substituted 2OG derivatives, which were prepared via a reported procedure (Supplementary Fig. 1 and Supplementary Methods)[21], to sustain catalysis by purified recombinant FIH in the absence of 2OG was examined using an assay directly monitoring substrate depletion and product formation (i.e., a +16 Da mass shift) by solid-phase extraction (SPE) coupled to mass spectrometry (SPE-MS)[44],[45]. […] (i.e. CA1–20)[47], were used as FIH substrates to test for potential substrate-dependent differences in terms of cosubstrate analog selectivity.
Assay samples were aspirated under vacuum for 0.6 s and loaded onto a C4 SPE cartridge. After loading, the C4 SPE cartridge was washed with 0.1%v/v aqueous formic acid to remove non-volatile buffer salts (5.5 s, 1.5 mL/min). […] The mass spectrometer was operated using the MassHunter Workstation B.08.00 software (Agilent), the mass spectrometer parameters were: capillary voltage (4000 V), nozzle voltage (1000 V), fragmentor voltage (365 V), gas temperature (280 °C), gas flow (13 L/min), sheath gas temperature (350 °C), sheath gas flow (12 L/min). […] Data were exported into Microsoft Excel and used to calculate the % conversion of the hydroxylation reaction using the equation: % conversion = 100 × (integral product peptide)/(integral substrate peptide+integral product peptide). […] Z′-factors were calculated according to the cited literature using Microsoft Excel (Supplementary Fig. 26)[83].

[6] = target: T2, FIH; assay: SPE-MS FIH inhibition assay; format: biochemical; settings: for IC50 FIH: 5.0 μM HIF-1α788-822, 10 μM 2OG, mean of two runs; for IC50: read-out: FIH IC50, independent replicate; on IC50 FIH: 0.15 µM FIH
Description: FIH inhibition assays were performed as described, using cosubstrate/cofactor stock solutions (L-ascorbic acid, LAA: 50 mM in MQ-grade water; 2-oxoglutarate, 2OG: 10 mM in MQ-grade water; ammonium iron(II) sulfate hexahydrate, FAS, (NH4)2Fe(SO4)2·6H2O: 400 mM in 20 mM HCl diluted to 1 mM in MQ-grade water), which were freshly prepared from commercially-sourced solids (Sigma Aldrich).
Dimethyl sulfoxide (DMSO) solutions of the 2OG derivatives were dry dispensed across 384-well polypropylene assay plates (Greiner) in an approximately threefold and 11-point dilution series (100 μM top concentration; the final DMSO assay concentration was kept constant at 0.5%v/v) using an ECHO 550 acoustic dispenser (Labcyte). […] Each reaction was performed in technical duplicates in adjacent wells of the assay plates; additionally, assays were performed in two independent duplicates on different days using different inhibitor solutions.
The Enzyme Mixture (25 μL/well), containing 0.3 μM His6-FIH in buffer (50 mM Tris, 50 mM NaCl, pH 7.5), was dispensed across the inhibitor-containing 384-well assay plates with a multidrop dispenser (ThermoFischer Scientific) at 20 °C under an ambient atmosphere. The plates were subsequently centrifuged (1000 rpm, 15 s) and incubated for 15 min at 20 °C. The Substrate Mixture (25 μL/well), containing 10.0 μM HIF-1α788–822[37] substrate, 200 μM LAA, 20.0 μM 2OG, and 20.0 μM FAS in buffer (50 mM Tris, 50 mM NaCl, pH 7.5), was added using the multidrop dispenser. The plates were centrifuged (1000 rpm, 15 s) and after incubating for 15 min, the enzyme reaction was stopped by the addition of 10%v/v aqueous formic acid (5 μL/well). The plates were then centrifuged (1000 rpm, 30 s) and analyzed by MS.
MS-analyses were performed using a RapidFire RF 365 high-throughput sampling robot (Agilent) attached to an iFunnel Agilent 6550 accurate-mass quadrupole time-of-flight mass spectrometer operated in the positive ionization mode. Assay samples were aspirated under vacuum for 0.6 s and loaded onto a C4 SPE cartridge. After loading, the C4 SPE cartridge was washed with 0.1%v/v aqueous formic acid to remove non-volatile buffer salts (5.5 s, 1.5 mL/min). […] The mass spectrometer was operated using the MassHunter Workstation B.08.00 software (Agilent), the mass spectrometer parameters were: capillary voltage (4000 V), nozzle voltage (1000 V), fragmentor voltage (365 V), gas temperature (280 °C), gas flow (13 L/min), sheath gas temperature (350 °C), sheath gas flow (12 L/min). The m/z + 2 (for CA1–20) or +3 (for HIF-1α788–822) charge states of the peptide (substrate) and the hydroxylated peptide (product) were used to extract ion chromatogram data, peak areas were integrated using RapidFire Integrator 4.3.0 (Agilent). Data were exported into Microsoft Excel and used to calculate the % conversion of the hydroxylation reaction using the equation: % conversion = 100 × (integral product peptide)/(integral substrate peptide+integral product peptide). […] Z′-factors were calculated according to the cited literature using Microsoft Excel (Supplementary Fig. 26)[83].
SPE-MS FIH inhibition assays were performed as described in the Methods section.
Tris, 50 mM NaCl, pH 7.5, 20 °C). […]

[7] = source data of Table 3, single independent replicates

SMILES | AspH-catalyzed substrate hydroxylation ([3]; Fig 4f, fourfold excess of 13 over 0.5 mM 2OG) | AspH conversion ([3]; Fig 4d, 0.5 mM 13 and 0.5 mM 2OG) | effect on FIH activity ([4]; Fig 4, 13 from 0 to 2.0 mM, 0.5 mM 2OG) | FIH conversion ([4]; Fig 4d, 0.5 mM 13 and 0.5 mM 2OG, after 4 min) | FIH activity, %-substrate conversion ([5]; CA1–20 substrate) | FIH activity, %-substrate conversion ([5]; HIF-1α788–822 substrate) | FIH IC50, independent replicate [6, 7] | selectivity of AspH over FIH inhibition as judged by IC50-values [6] | IC50 FIH [6] | IC50 [6, 7] | IC50 [1] | AspH activity, %-substrate conversion [2] | IC50 AspH [1]
CC(C)(CC(=O)C(=O)O)C(=O)O [compound 13, 4,4-dimethyl-2OG] | < 20% | ~ 60% | no effect on FIH activity | ~ 80% | ~10% | < 1% | not inhibiting | – | – | – | ~300 nM | <1% | –
CC(C)CC(CC(=O)C(=O)O)C(=O)O (stereo not shown) [compound 16, 4-isobutyl-2OG] | – | – | – | – | ~3% | < 1% | – | ~ 70 fold | – | – | ~500 nM | <1% | –
O=C(O)C(=O)C12CCC(C(=O)O)(CC1)CC2 [compound 25] | – | – | – | – | ^c<1% ^d<1% | ^c<1% ^d<1% | – | – | inactive | – | – | ~8% | inactive
CCCC(CC(=O)O)C(=O)C(=O)O (stereo not shown) [compound 3, 3-propyl-2OG] | – | – | – | – | ~10% | < 1% | – | – | – | 2640 nM and 2680 nM | ~5700 nM | <1% | –
O=C(O)C(=O)c1ccccc1C(=O)O [compound 26] | – | – | – | – | ^c<1% ^d<1% | ^c<1% ^d<1% | – | – | inactive | – | – | <1% | inactive
CCC(CC(=O)O)C(=O)C(=O)O (stereo not shown) [compound 2, 3-ethyl 2OG] | – | – | – | – | ~20% | ~2% | – | – | – | 4540 nM and 4520 nM | ~1200 nM | <1% | –

The next lines start with results.

AspH-catalyzed substrate hydroxylation ([3]; Fig 4f, fourfold excess of 13 over 0.5 mM 2OG) | AspH conversion ([3]; Fig 4d, 0.5 mM 13 and 0.5 mM 2OG) | effect on FIH activity ([4]; Fig 4, 13 from 0 to 2.0 mM, 0.5 mM 2OG) | FIH conversion ([4]; Fig 4d, 0.5 mM 13 and 0.5 mM 2OG, after 4 min) | FIH activity, %-substrate conversion ([5]; CA1–20 substrate) | FIH activity, %-substrate conversion ([5]; HIF-1α788–822 substrate) | FIH IC50, independent replicate [6, 7] | selectivity of AspH over FIH inhibition as judged by IC50-values [6] | IC50 FIH [6] | IC50 [6, 7] | SMILES | IC50 [1] | AspH activity, %-substrate conversion [2] | IC50 AspH [1]
– | – | – | – | ^c<1% ^d<1% | ^c<1% ^d<1% | – | – | inactive | – | O=C(O)C(=O)c1cscc1C(=O)O [compound 34] | – | <1% | inactive
– | – | – | – | ^c<1% ^d<1% | ^c<1% ^d<1% | – | – | inactive | – | Cc1cc(C(=O)O)ccc1C(=O)C(=O)O [compound 33] | – | ~5% | inactive
– | – | – | – | ^c<1% ^d<1% | ^c<1% ^d<1% | – | – | inactive | – | O=C(O)C(=O)c1cccc(C(=O)O)c1 [compound 27] | – | <1% | inactive
– | – | – | – | ^c<1% ^d<1% | ^c<1% ^d<1% | – | – | inactive | – | O=C(O)C(=O)c1ccc(C(=O)O)c(Br)c1 [compound 32] | – | ~8% | inactive
– | – | – | – | ^c<1% ^d<1% | ^c<1% ^d<1% | – | – | inactive | – | O=C(O)C(=O)c1ccc(C(=O)O)c(F)c1 [compound 30] | – | ~8% | inactive
– | – | – | – | ^c<1% ^d<1% | ^c<1% ^d<1% | – | – | inactive | – | O=C(O)C(=O)c1ccc(C(=O)O)cc1Br [compound 31] | – | ~20% | inactive
